In experiment [1] the test system is Bone marrow cell. Kind of experiment: Inhibition of osteoclastogenesis in CD1 mouse bone marrow cells at 37 uM added on day 2 and day 4 measured on day 7 by TRAP assay relative to control. The experiment is classed as functional.
Experiment [2] deals with Bone marrow cell. In words: Inhibition of osteoclastogenesis in CD1 mouse bone marrow cells at 0.1 to 10 ug/ml added on day 2 and day 4 measured on day 7 by TRAP assay. The experiment is classed as functional, cell-based.
Experiment [3] deals with Bone marrow cell. Kind of experiment: Inhibition of osteoclastogenesis in CD1 mouse bone marrow cells at 5 ug/ml added on day 2 and day 4 measured on day 7 by TRAP assay relative to GW9508. It is filed as functional, cell-based.
Experiment [4] concerns Bone marrow cell. In words: Inhibition of osteoclastogenesis in CD1 mouse bone marrow cells at 72 uM added on day 2 and day 4 measured on day 7 by TRAP assay relative to control. The experiment is classed as functional.
In experiment [5] the test system is Bone marrow cell. In words: Inhibition of osteoclastogenesis in CD1 mouse bone marrow cells at 0.01 ug/ml added on day 2 and day 4 measured on day 7 by TRAP assay relative to control. It is filed as functional.

The source made the active and inactive calls. The calls are words filed in the database; no cut-off is given here.

With `CCCCCCCCCCCCCOCC(=O)O`, the inhibition at 37 µM in the experiment with Bone marrow cell [1] is 100%. In the case of `CCCCCCCCCCCCOCCC(=O)O`, the inhibition at 37 µM with Bone marrow cell [1] worked out at 80.8%. Besides, the inhibition result in the experiment on Bone marrow cell [2] is “Dose-dependent effect”.

In the experiment with Bone marrow cell [1], `CCCCCCOCCCCCCCCC(=O)O` came in with an inhibition at 37 µM of 100%. In addition, in the experiment on Bone marrow cell [2], the inhibition entry is “inactive”.

In the case of `CCCCCCCCCCn1cc(CCC(=O)O)nn1`, the inhibition at 37 µM in the experiment on Bone marrow cell [1] was 26.7%. In addition, the inhibition result with Bone marrow cell [2] is “Active”. In turn, `CCCCCOCCCCCCCCCC(=O)O` had an inhibition at 37 µM in the experiment with Bone marrow cell [1] of 100%. In addition, the inhibition entry in the experiment with Bone marrow cell [2] was “inactive”.

Turning to `CCCCCCCCCOCCCCCC(=O)O`, in the experiment with Bone marrow cell [1], 37 µM produced 100% inhibition. Also, in the experiment on Bone marrow cell [2], the inhibition entry is “inactive”. Turning to `CCn1cc(CCCCCCCCCCC(=O)O)nn1`, the inhibition at 37 µM with Bone marrow cell [1] was determined as 16.9%. For the same compound, the inhibition result in the experiment on Bone marrow cell [3] is “Active”. Further, the inhibition result with Bone marrow cell [2] is “Dose-dependent effect”. With `O=C(O)CCc1ccc(NCc2cccc(Oc3ccccc3)c2)cc1` [GW9508], in the experiment with Bone marrow cell [4], 72 µM produced 28.2% inhibition. Besides, in the experiment with Bone marrow cell [2], the inhibition entry was “Dose-dependent effect”. In the case of `CCCCCCCn1cc(CCCCCC(=O)O)nn1`, in the experiment with Bone marrow cell [1], testing at 37 µM gave an inhibition of 21.5%. Besides, the inhibition entry in the experiment with Bone marrow cell [3] is “Active”. Further, the inhibition result in the experiment with Bone marrow cell [2] was “Dose-dependent effect”. On to `CCCCCCCCCCC#CCCCCCC(=O)O` [OSTEOPROTEGERIN], for which, in the experiment with Bone marrow cell [5], the inhibition at 0.01 µg/mL stood at 32.6%. `CCCCCCCCCn1cc(CCCC(=O)O)nn1` came in with an inhibition at 37 µM in the experiment with Bone marrow cell [1] of 22.2%. In the experiment on Bone marrow cell [2], the inhibition result is “Active”. In the experiment with Bone marrow cell [1], `CCCOCCCCCCCCCCCC(=O)O` came in with an inhibition at 37 µM of 73.2%. The inhibition result in the experiment on Bone marrow cell [2] was “Dose-dependent effect”. As for `CCCCCCCCCCCn1cc(CC(=O)O)nn1`, 37 µM produced 38.8% inhibition in the experiment with Bone marrow cell [1].

The compound `CCCCCCCCCCCCCCCC(=O)O` [PALMITIC ACID] came in with an inhibition at 37 µM in the experiment with Bone marrow cell [1] of 73.8%. Also, the inhibition entry in the experiment on Bone marrow cell [3] and with Bone marrow cell [2] was “Active” each time. Take `CCCCCn1cc(CCCCCCCC(=O)O)nn1`: in the experiment with Bone marrow cell [1], testing at 37 µM gave an inhibition of 33.8%.

In the experiment with Bone marrow cell [1], `COCCOCCOCCCCCCCC(=O)O` returned an inhibition at 37 µM of 100%.

Turning to `CCCCCCCCCCOCCCCC(=O)O`, 37 µM produced 65.4% inhibition in the experiment with Bone marrow cell [1]. The inhibition result in the experiment with Bone marrow cell [2] is “Dose-dependent effect”.

For the origin of these results see ChEMBL document CHEMBL2396534, “Long-chain triazolyl acids as inhibitors of osteoclastogenesis” (2013).
